In US11633379B2, “Methods of inhibiting PCSK9” (TRUSTEES OF DARTMOUTH COLLEGE, priority 2017, dated 2023):
Where “and” joins values, the source holds several entries; their conditions need not be identical. Identical values can stand only once.

Assays:
PCSK9 [1] = experiment: Basal_PCSK9 HepG2, primary SP and CRC (secreted PCSK9, ELISA); format: cell-based, human; conditions: for Primary SP Basal_PCSK9 HepG2 SP % Inhib @ 5 μM / Primary SP Basal_PCSK9 HepG2 SP % Inhib @ 50 μM / Primary SP Basal_PCSK9 HepG2 SP % Inhib @ 2 μM: HepG2, single point; for Primary SP Basal_PCSK9 HepG2 SP % Inhib @ 5 μM / accumulation of PCSK9 in culture media: 5 μM; for accumulation of PCSK9 in culture media: HepG2 cells, FIGS. 2A-2B; for IC50: HepG2, concentration response curve; for activity rating in words (PCSK9 inhibition, Table 2): summary of Table 2 data
Experimental: To study the effect of the compounds on PCSK9 secretion we used 1×10^6 HepG2 cells in 6-well culture plates, followed by incubation with media only, media+0.1% DMSO or Media+5 uM of 31/33/34/35 in 0.1% DMSO and collection of 50 ul of media at 8, 16, 24 and 40 hours or incubation with increasing concentration (0.2-50 μM) of 34 in 0.1% DMSO for 24 hours and collection of 50 ul of media. The collected media was analyzed for PCSK9 levels using commercially available ELISA kit (MBL-international, catalog # CY-8079) following the manufacturer instruction.
(§1) The below data (Table 2) was generated using the assays as discussed in Examples 1-2. Blanks mean no testing was performed. […] For the SP assays, the higher the number, the higher the inhibition, e.g., the better the activity of the compound. Compounds with a determined IC50 are particularly active, the IC50 values were determined via dose response curve (under the heading CRC which stands for concentration response curve aka dose response curve).

PCSK9 [2] = experiment: PCSK9 AlphaLisa Huh7 SP and CRC; format: cell-based
PCSK9 [3] = experiment: Secondary Basal_PCSK9 ELISA RPH; format: cell-based
Experimental: as §1

| SMILES | Primary SP Basal_PCSK9 HepG2 SP % Inhib @ 5 μM (PCSK9 [1]) [%] | Primary SP PCSK9 AlphaLisa Huh7 SP % Inhib @ 10 μM (PCSK9 [2]; Huh7) | also measured |
| --- | --- | --- | --- |
| Cc1ccc(C2CC3(CCCCC3)c3c2[nH]c2ccc(C)cc32)cc1 (centres unmarked) [Compound 35] | 26.4 | – | accumulation of PCSK9 in culture media (PCSK9 [1]): significantly reduced accumulation of PCSK9 in culture media in a time-dependent and concentration-dependent manner; Primary SP Basal_PCSK9 HepG2 SP % Inhib @ 50 μM (PCSK9 [1]): 90%; IC50 (PCSK9 [1]): 3.14 µM; activity rating in words (PCSK9 inhibition, Table 2) (PCSK9 [1]): particularly strongly active |
| CN1c2ccc(Br)cc2[C@]2(C)Cc3ccccc3N[C@H]12 [Compound 62] | – | 10.55% and 20.08% | – |
| CC1(C)c2c([nH]c3ccc(Cl)cc23)C2C=CC1C2 (centres unmarked) [Compound 18] | 21.64 | – | – |
| COc1ccc(C2CC3(CCCCC3)c3c2n(C)c2ccccc32)cc1 (centres unmarked) [Compound 20] | 15.69 | – | – |
| Cc1ccc(C2CC(C)(C)c3c2[nH]c2ccc(C)cc32)cc1 (centres unmarked) [Compound 36] | 24.5 | – | Primary SP Basal_PCSK9 HepG2 SP % Inhib @ 50 μM (PCSK9 [1]): 96.5%; IC50 (PCSK9 [1]): 18.6 µM |
| Cc1cccc2c1N[C@@H]1N(C)c3ccccc3[C@]1(C)C2 [Compound 58] | – | −2.718% | – |
| CCC1c2c(n(C)c3ccccc23)C2C=CC1C2 (centres unmarked) [Compound 6] | −5.193 | – | – |
| CC1(C)c2c([nH]c3ccc(C(F)(F)F)cc23)C2C=CC1C2 (centres unmarked) [Compound 25] | – | −334% | – |
| CN1c2ccccc2[C@]2(C)Cc3cc(Cl)ccc3N[C@H]12 [Compound 60] | – | 9.09% | – |
| Cn1c2c(c3ccccc31)C(c1cccs1)C1C=CC2C1 (centres unmarked) [Compound 5] | 30.55 | – | – |
| CC1(C)c2c(n(Cc3ccccc3)c3ccccc23)C2C=CC1C2 (centres unmarked) [Compound 13] | 18.09 | – | – |
| Cn1c2c(c3ccccc31)C1(CCCCC1)C1C=CC2C1 (centres unmarked) [Compound 9] | 21.92 | – | – |
| c1ccc(C2CC3(CCCCC3)c3c2[nH]c2ccccc32)cc1 (centres unmarked) [Compound 32] | 8.8 | – | Primary SP Basal_PCSK9 HepG2 SP % Inhib @ 50 μM (PCSK9 [1]): 11.9%; activity rating in words (PCSK9 inhibition, Table 2) (PCSK9 [1]): weakly active |
| COC(=O)[C@@H]1CC[C@H](O)[C@@]2(C)c3ccccc3N(C)[C@@H]12 [Compound 49] | – | – | Primary SP Basal_PCSK9 HepG2 SP % Inhib @ 50 μM (PCSK9 [1]): −13.7% and −22.9% |
| Cn1c2c(c3ccccc31)C1(CCCCC1)CC2c1ccc2ccccc2c1 (centres unmarked) [Compound 22] | 77.2 | – | IC50 (PCSK9 [2]; Huh7, concentration response curve, read-out: Primary CRC PCSK9 AlphaLisa Huh7 CRC Rel IC50): > 40 µM |
| C[C@@]12Cc3ccccc3N[C@@H]1N(Cc1ccccc1)c1ccccc12 [Compound 55] | – | −22.6% | – |
| COc1ccc(C2c3c(n(C)c4ccccc34)C3C=CC2C3)cc1 (centres unmarked) [Compound 2] | 39.51 | – | – |
| Cn1c2c(c3ccccc31)C1(CCCCC1)CC2c1ccccc1 (centres unmarked) [Compound 19] | 7.268 | – | – |
| CC1(C)C(=O)C[C@@]2(C)c3ccccc3N(Cc3ccccc3)[C@@]12C [Compound 53] | – | – | Primary SP Basal_PCSK9 HepG2 SP % Inhib @ 50 μM (PCSK9 [1]): −20.1% and −22.3% |
| CC1(C)c2c([nH]c3ccc(Br)cc23)C2C=CC1C2 (centres unmarked) [Compound 17] | 37.33 | – | – |
| CC1=C(C)CC2(CCCCC2)c2c(n(C)c3ccccc23)C1 [Compound 10] | 11.61 | – | – |

| SMILES | Primary SP Basal_PCSK9 HepG2 SP % Inhib @ 5 μM (PCSK9 [1]) [%] | Primary SP PCSK9 AlphaLisa Huh7 SP % Inhib @ 10 μM (PCSK9 [2]; Huh7) | also measured |
| --- | --- | --- | --- |
| Cc1ccc(C2CC(C)(C)c3c2[nH]c2ccccc32)cc1 (centres unmarked) [Compound 31] | 26.2 | – | Secondary Basal_PCSK9 ELISA RPH % Inhib @ 100 μM (PCSK9 [3]): 19.03% and 22.14%; accumulation of PCSK9 in culture media (PCSK9 [1]): significantly reduced accumulation of PCSK9 in culture media in a time-dependent and concentration-dependent manner; Primary SP Basal_PCSK9 HepG2 SP % Inhib @ 50 μM (PCSK9 [1]): 87.5%; IC50 (PCSK9 [1]): 4.12 µM; activity rating in words (PCSK9 inhibition, Table 2) (PCSK9 [1]): particularly strongly active |
| CN1c2ccccc2[C@]2(Cc3ccccc3)Cc3ccccc3N[C@H]12 [Compound 57] | – | 17.71% | – |
| Cn1c2c(c3ccccc31)C1(CCCC1)C1C=CC2C1 (centres unmarked) [Compound 7] | – | −34.71% | – |
| CC1(C)c2c([nH]c3ccccc23)C2C=CC1C2 (centres unmarked) [Compound 14] | – | – | Primary SP Basal_PCSK9 HepG2 SP % Inhib @ 2 μM (PCSK9 [1]): 47.9%; IC50 (PCSK9 [1]): > 50 µM |
| CC1=CCc2c(c3ccccc3n2C)C(c2ccccc2)C1 (centres unmarked) [Compound 11] | 38.95 | – | – |
| CC1C=CC(C)C(c2ccccc2)c2c1n(C)c1ccccc21 (centres unmarked) [Compound 12] | – | −261.1% | – |
| Cn1c2c(c3ccccc31)C(c1ccco1)C1C=CC2C1 (centres unmarked) [Compound 4] | 11.69 | – | – |
| C=CCc1ccc2c(c1)C[C@@]1(C)c3ccccc3N(C)[C@H]1N2 [Compound 61] | – | −16.91% | – |
| CC1(C)c2c([nH]c3ccc(O)cc23)C2C=CC1C2 (centres unmarked) [Compound 24] | 4.997 | – | – |
| Cn1c2c(c3ccccc31)C(c1ccc(C(F)(F)F)cc1)C1C=CC2C1 (centres unmarked) [Compound 3] | −0.4577 | – | – |
| CCC[C@@]12Cc3ccccc3N[C@@H]1N(C)c1ccccc12 [Compound 56] | – | 32.56% and 23.45% | – |
| Cn1c2c(c3ccccc31)C1(CCCCC1)C1C=CC2C1 (centres unmarked) [Compound 8] | – | −44.02% | – |
| Cc1ccc2c(c1)C[C@@]1(C)c3ccccc3N(C)[C@H]1N2 [Compound 59] | – | – | Primary SP PCSK9 AlphaLisa Huh7 SP % Inhib @ 10.1 μM (PCSK9 [2]; 10.1 μM, Huh7): −5.307% |
| Cc1ccc(C2CC3(CCCCC3)c3c2[nH]c2ccccc32)cc1 (centres unmarked) [Compound 33] | 18.9 | – | Secondary Basal_PCSK9 ELISA RPH % Inhib @ 20 μM (PCSK9 [3]; 20 μM): −4.143% and 2.541% and 3.284% and −5.595%; Secondary Basal_PCSK9 ELISA RPH % Inhib @ 100 μM (PCSK9 [3]): 25.95% and 29.77%; accumulation of PCSK9 in culture media (PCSK9 [1]): significantly reduced accumulation of PCSK9 in culture media in a time-dependent and concentration-dependent manner; Primary SP Basal_PCSK9 HepG2 SP % Inhib @ 50 μM (PCSK9 [1]): 53.4%; IC50 (PCSK9 [1]): 2.12 µM; activity rating in words (PCSK9 inhibition, Table 2) (PCSK9 [1]): particularly strongly active |
| CN1c2ccccc2[C@]2(C)Cc3ccccc3N[C@H]12 [Compound 54] | – | −11.97% | – |
| Cc1ccc(C2CC3(CCCCC3)c3c2n(C)c2ccccc32)cc1 (centres unmarked) [Compound 21] | 12.18 | – | – |
| COC(=O)c1ccc2[nH]c3c(c2c1)C(C)(C)C1C=CC3C1 (centres unmarked) [Compound 15] | – | −117.8% | – |
| CC1(C)c2c([nH]c3ccc(F)cc23)C2C=CC1C2 (centres unmarked) [Compound 23] | – | −35.06% | – |
| CC1(C)c2c([nH]c3ccc(I)cc23)C2C=CC1C2 (centres unmarked) [Compound 16] | 9.989 | – | – |
| Cn1c2c(c3ccccc31)C(c1ccccc1)C1C=CC2C1 (centres unmarked) [Compound 1] | – | – | Primary SP Basal_PCSK9 HepG2 SP % Inhib @ 2 μM (PCSK9 [1]): 0% |
